Results as given in publication PMC4741798, “Imaging of carbonic anhydrase IX with an ^111In-labeled dual-motif inhibitor” (Oncotarget, 2015).

Legend:
CAIX [1] = target: CAIX; design: method as in PMID 25698334; conditions: reported value; cited from earlier work
CAIX [2] = target: T1, CAIX (Homo sapiens, UniProt Q16790); experiment: Competitive fluorescence polarization assay with FITC-labeled 8; assay type: binding; conditions: 100 nM CAIX, 80 nM 8, 30 min room temperature, triplicate; read-out: IC50 (inhibition of fluorescence polarization of FITC labeled 8)
T1 construct: purchased R&D Systems
Text: We synthesized fluorescein isothiocyanate (FITC)-labeled 8 as a standard to measure CAIX binding affinities of the corresponding radiotracers. […] CAIX-selective binding was confirmed by fluorescence microscopic analyses of SK-RC-53 and BxPC3 cells labeled with 8 (Fig. 2). […] In order to test the relative binding of XYIMSR-01 and [^113/115In]XYIMSR-01 to CAIX we modified a competitive fluorescence polarization assay for use with 8. For the competitive binding assay, after optimization for background fluorescence, we chose concentrations of 80 nM and 100 nM for 8 and CAIX, respectively. […] Increasing concentrations of 1, XYIMSR-01 and [^113/115In]XYIMSR-01 were incubated with CAIX for 30 min at room temperature. After 8 was added, fluorescence polarization signal was recorded. […] We took advantage of fluorescence polarization using 8 to measure relative binding affinities for other isoforms of the carbonic anhydrases. We chose to test one cytosolic (CAII) and an additional membrane-localized isoform (CAXII).
Fluorescence polarization (FP) experiments were performed in 21 μL of the assay buffer (12.5 mM Tris-HCl, pH 7.5, 75 mM NaCl) in black flat bottom 384-well microplates (Corning, Inc., New York, NY). The FP reaction employed 100 nM of purified CAIX (R&D systems, Minneapolis, MN) and 80 nM FITC-labeled 8 [27] within the assay buffer. The FP values were measured as mP units using the Victor3 multi-label plate reader equipped with excitation (485 nm) and emission (535 nm) filters (Perkin Elmer, Waltham, MA). 100 nM CAIX was incubated with serially diluted (from 1 μM to 61 fM) concentrations of the three targeting molecules, 1, XYIMSR-01, and [^113/115In]XYIMSR-01 for 30 min at room temperature in 384-well plates. 80 nM 8 was added to each well and the reaction was incubated for 30 min at room temperature followed by FP measurement. Experiments were carried out in triplicate and the concentration resulting in 50% response (IC50) was calculated in GraphPad Prism 5 (GraphPad Software, La Jolla, CA) using the sigmoidal dose-response regression function.

Row | Structure (SMILES) | Kd (CAIX [1]) [µM] | IC50 (CAIX [2]) [µM]
1 | CC(CCC(=O)N[C@@H](CC(=O)N[C@@H](CC(=O)N[C@@H](CCCCn1cc(CCCC(=O)Nc2nnc(S(N)(=O)=O)s2)nn1)C(=O)NCCOCCOCCN)C(=O)O)C(=O)O)(c1ccc(O)cc1)c1ccc(O)cc1 [Compound 1, N^4-((S)-1-((2-(2-(2-aminoethoxy)ethoxy)ethyl)amino)-1-oxo-6-(4-(4-oxo-4-((5-sulfamoyl-1,3,4-thiadiazol-2-yl)amino)butyl)-1H-1,2,3-triazol-1-yl)hexan-2-yl)-N^2-((S)-3-(4,4-bis(4-hydroxyphenyl)pentanamido)-3-carboxypropanoyl)-L-asparagine, reference compound] | 0.0026 | 0.0759
2 | CC(CCC(=O)N[C@@H](CC(=O)N[C@@H](CC(=O)N[C@@H](CCCCn1cc(CCCC(=O)Nc2nnc(S(N)(=O)=O)s2)nn1)C(=O)NCCOCCOCCNC(=O)CN1CCN(CC(=O)O)CCN(CC(=O)O)CCN(CC(=O)O)CC1)C(=O)O)C(=O)O)(c1ccc(O)cc1)c1ccc(O)cc1 [XYIMSR-01, 2,2′,2′'-(10-((14S,18S,22S)-18,22-dicarboxy-27,27-bis(4-hydroxyphenyl)-2,13,16,20,24-pentaoxo-14-(4-(4-(4-oxo-4-((5-sulfamoyl-1,3,4-thiadiazol-2-yl)amino)butyl)-1H-1,2,3-triazol-1-yl)butyl)-6,9-dioxa-3,12,15,19,23-pentaazaoctacosyl)-1,4,7,10-tetraazacyclododecane-1,4,7-triyl)triacetic acid] | – | 0.067
3 | CC(CCC(=O)N[C@@H](CC(=O)N[C@@H](CC(=O)N[C@@H](CCCCn1cc(CCCC(=O)Nc2nnc(S(N)(=O)=O)s2)nn1)C(=O)NCCOCCOCCNC(=O)CN1CCN(CC(=O)[O-])CCN(CC(=O)[O-])CCN(CC(=O)[O-])CC1)C(=O)O)C(=O)O)(c1ccc(O)cc1)c1ccc(O)cc1.[In+3] [[^113/115In]XYIMSR-01, ^113/115Indium(III) 2,2′,2′'-(10-((14S,18S,22S)-18,22-dicarboxy-27,27-bis(4-hydroxyphenyl)-2,13,16,20,24-pentaoxo-14-(4-(4-(4-oxo-4-((5-sulfamoyl-1,3,4-thiadiazol-2-yl)amino)butyl)-1H-1,2,3-triazol-1-yl)butyl)-6,9-dioxa-3,12,15,19,23-pentaazaoctacosyl)-1,4,7,10-tetraazacyclododecane-1,4,7-triyl)triacetate] | – | 0.108
